These results are taken from ChEMBL document CHEMBL3877294, “Discovery of Ruzasvir (MK-8408): A Potent, Pan-Genotype HCV NS5A Inhibitor with Optimized Activity against Common Resistance-Associated Polymorphisms” (J Med Chem, 2017).

The nature of assay [1]: Selectivity ratio for EC90 for HCV genotype-2b NS5A harboring methionine at position 31 to EC90 for HCV genotype-1a NS5A.
Assay [2] deals with T1, Nonstructural protein 5A (Hepatitis C virus), Q5L478 [Y93H].
T1 sequence (whole entry): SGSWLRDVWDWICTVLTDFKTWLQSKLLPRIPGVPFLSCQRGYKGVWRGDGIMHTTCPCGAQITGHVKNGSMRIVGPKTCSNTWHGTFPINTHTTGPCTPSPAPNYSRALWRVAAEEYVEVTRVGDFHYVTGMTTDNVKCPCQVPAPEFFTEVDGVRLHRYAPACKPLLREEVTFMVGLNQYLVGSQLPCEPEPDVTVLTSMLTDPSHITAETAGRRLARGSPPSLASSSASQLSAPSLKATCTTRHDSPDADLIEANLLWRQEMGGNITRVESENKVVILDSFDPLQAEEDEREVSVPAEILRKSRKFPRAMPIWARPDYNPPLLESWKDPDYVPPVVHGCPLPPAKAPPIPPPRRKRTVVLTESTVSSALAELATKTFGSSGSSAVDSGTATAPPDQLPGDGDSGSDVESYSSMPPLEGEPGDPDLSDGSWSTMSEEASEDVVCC
As to the kind of experiment: Inhibition of HCV genotype-1a NS5A Y93H mutant infected in human HuH7 cells by luciferase reporter gene assay. Format: cell-based. Conditions: Hepatitis C virus subtype 1a; Huh-7.

The test system of assay [3] is Huh-7. Description: Inhibition of HCV genotype-2b NS5A harboring methionine at position 31 infected in human HuH7 cells by luciferase reporter gene assay. The settings on record: Hepatitis C virus subtype 2b. Format: cell-based. (In general: Reporter assays use an easily measured gene product as a stand-in for the process of interest.)
Assay [4] deals with Huh-7. Description: Inhibition of HCV genotype-1a NS5A infected in human HuH7 cells by luciferase reporter gene assay. The class given is cell-based. Conditions: Hepatitis C virus subtype 1a.
Assay [5] relates to Hepatitis C virus subtype 1a. As to the kind of experiment: Selectivity ratio for EC90 for HCV genotype-1a NS5A Y93H mutant to EC90 for HCV genotype-1a NS5A.
Assay [6] relates to Nonstructural protein 5A (Hepatitis C virus), Q5L478 [UNDEFINED MUTATION]. As to the kind of experiment: Inhibition of HCV genotype-1a NS5A L31V mutant infected in human HuH7 cells by luciferase reporter gene assay. The class given is cell-based. Conditions: Hepatitis C virus subtype 1a; Huh-7.
Assay [7] has as its system Huh-7. Description: Inhibition of HCV genotype-4a NS5A infected in human HuH7 cells by luciferase reporter gene assay. The class given is cell-based. Conditions: Hepatitis C virus subtype 4a.
The subject of assay [8] is Huh-7. As to the kind of experiment: Inhibition of HCV genotype-3a NS5A infected in human HuH7 cells by luciferase reporter gene assay. The class given is cell-based. The settings on record: Hepatitis C virus subtype 3a.

Molecules are shown by their SMILES. Where only a bound is given, the exact number is not on record here.

A word on the EC90: it is the concentration at which the effect reaches the 90% level. Low values mean greater potency, high ones weaker potency. Take `COC(=O)N[C@H](C(=O)N1CCC[C@H]1c1ncc(-c2ccc3c(c2)OC(c2ccc(C4CC4)s2)n2c-3cc3cc(-c4cnc([C@@H]5CCCN5C(=O)[C@@H](NC(=O)OC)C(C)C)[nH]4)ccc32)[nH]1)C(C)C` (some centres not stated): the Selectivity ratio in assay [1] stood at 117; in assay [5], 400. For the same molecule, the values for the EC90 in assay [2], in assay [3] and in assay [4] were 1200 pM, 350 pM and 3 pM, respectively.
As to `CCOc1cccc([C@@H]2Oc3cc(-c4cnc([C@@H]5CCCN5C(=O)[C@@H](NC(=O)OC)C(C)C)[nH]4)ccc3-c3cc4cc(-c5cnc([C@@H]6CCCN6C(=O)[C@@H](NC(=O)OC)C(C)C)[nH]5)ccc4n32)c1`, the Selectivity ratio in assay [1] stood at 1100; in assay [5], 800. In addition, the EC90 in assay [2] came to 16000 pM; in assay [3], 22000 pM; in assay [4], 20 pM.
As for `COC(=O)N[C@H](C(=O)N1CCC[C@H]1c1ncc(-c2ccc3c(c2)OC(c2ccc(Cl)s2)n2c-3cc3cc(-c4cnc([C@@H]5CCCN5C(=O)[C@@H](NC(=O)OC)C(C)C)[nH]4)ccc32)[nH]1)C(C)C` (mixture of isomers), the Selectivity ratio is 50 in assay [1] and 200 in assay [5]. Also, the results for the EC90 in assay [2], in assay [3] and in assay [4] were 4000 pM, 1000 pM and 20 pM, respectively.
Turning to `CCOc1cccc([C@@H]2Oc3cc(-c4cnc([C@@H]5CCCN5C(=O)[C@@H](NC(=O)OC)C(C)C)[nH]4)cc(F)c3-c3cc4cc(-c5cnc([C@@H]6CCCN6C(=O)[C@@H](NC(=O)OC)C(C)C)[nH]5)ccc4n32)c1`, the Selectivity ratio in assay [1] was 800; in assay [5], 200. Moreover, the EC90 was found to be 2000 pM in assay [2], 8000 pM in assay [3] and 10 pM in assay [4].
Turning to `COC(=O)N[C@H](C(=O)N1CCC[C@H]1c1ncc(-c2ccc3c(c2)O[C@@H](c2ccc(C4CC4)cc2)n2c-3cc3cc(-c4cnc([C@@H]5CCCN5C(=O)[C@@H](NC(=O)OC)C(C)C)[nH]4)ccc32)[nH]1)C(C)C`, the Selectivity ratio in assay [1] was determined as 300; in assay [5] it was 1900. The EC90 turned out to be 8000 pM in assay [2], 1000 pM in assay [3] and 4 pM in assay [4].
Take `COC(=O)N[C@H](C(=O)N1CCC[C@H]1c1ncc(-c2cc(F)c3c(c2)OC(c2ccc(C4CC4)s2)n2c-3cc3cc(-c4cnc([C@@H]5C[C@H]6C[C@H]6N5C(=O)[C@@H](NC(=O)OC)C(C)C)[nH]4)ccc32)[nH]1)C(C)C` (some centres not stated): the EC90 came out at 30 pM in assay [2]; 12 pM in assay [6]; 5 pM in assay [7]; 7 pM in assay [8]; 300 pM in assay [3]; 4 pM in assay [4].
Take `COC(=O)N[C@H](C(=O)N1CCC[C@H]1c1ncc(-c2cc(F)c3c(c2)OC(c2cnc(C(F)F)s2)n2c-3cc3cc(-c4cnc([C@@H]5CCCN5C(=O)[C@@H](NC(=O)OC)C(C)C)[nH]4)ccc32)[nH]1)C(C)C` (some centres not stated): the EC90 was found to be 56 pM in assay [2]; 3 pM in assay [6]; 2 pM in assay [7]; 4 pM in assay [8]; 69 pM in assay [3]; 2 pM in assay [4].
`COC(=O)N[C@H](C(=O)N1CCC[C@H]1c1ncc(-c2cc(F)c3c(c2)OC(c2sc(C(C)C)nc2C)n2c-3cc3cc(-c4cnc([C@@H]5CCCN5C(=O)[C@@H](NC(=O)OC)C(C)C)[nH]4)ccc32)[nH]1)C(C)C` (some centres not stated): the EC90 in assay [2] is 12500 pM; in assay [6], 360 pM; in assay [7] it was 9 pM; in assay [8], 34 pM; in assay [3], over 1700 pM; in assay [4] it was 4 pM.
Take `COC(=O)N[C@H](C(=O)N1CCC[C@H]1c1ncc(-c2cc(F)c3c(c2)OC(c2ccc(C(=O)N(C)C)s2)n2c-3cc3cc(-c4cnc([C@@H]5CCCN5C(=O)[C@@H](NC(=O)OC)C(C)C)[nH]4)ccc32)[nH]1)C(C)C` (some centres not stated): the EC90 in assay [2] is 470 pM; in assay [6] it was 35 pM; in assay [7] it was 24 pM; in assay [8], 120 pM; in assay [3] it was 450 pM; in assay [4] it was 14 pM.
Turning to `COC(=O)N[C@H](C(=O)N1CCC[C@H]1c1ncc(-c2cc(F)c3c(c2)OC(c2cc(C)c(C4CC4)s2)n2c-3cc3cc(-c4cnc([C@@H]5CCCN5C(=O)[C@@H](NC(=O)OC)C(C)C)[nH]4)ccc32)[nH]1)C(C)C` (some centres not stated), the EC90 was found to be 1700 pM in assay [2]; 9 pM in assay [6]; 2 pM in assay [7]; 4 pM in assay [8]; 880 pM in assay [3]; 2 pM in assay [4].
With `COC(=O)N[C@H](C(=O)N1CCC[C@H]1c1ncc(-c2cc(F)c3c(c2)OC(c2cc4c(s2)CCC4)n2c-3cc3cc(-c4cnc([C@@H]5C[C@H]6C[C@H]6N5C(=O)[C@@H](NC(=O)OC)C(C)C)[nH]4)ccc32)[nH]1)C(C)C` (some centres not stated), the EC90 worked out at 200 pM in assay [2]; 15 pM in assay [6]; 5 pM in assay [7]; 12 pM in assay [8]; 670 pM in assay [3]; 6 pM in assay [4].
On to `COC(=O)N[C@H](C(=O)N1CCC[C@H]1c1ncc(-c2cc(F)c3c(c2)OC(c2csc(C4CC4)c2)n2c-3cc3cc(-c4cnc([C@@H]5CCCN5C(=O)[C@@H](NC(=O)OC)C(C)C)[nH]4)ccc32)[nH]1)C(C)C` (some centres not stated), for which the EC90 was 260 pM in assay [2]; 60 pM in assay [6]; 3 pM in assay [7]; 7 pM in assay [8]; 880 pM in assay [3]; 2 pM in assay [4].
In the case of `COC(=O)N[C@H](C(=O)N1CCC[C@H]1c1ncc(-c2cc(F)c3c(c2)OC(c2cnns2)n2c-3cc3cc(-c4cnc([C@@H]5CCCN5C(=O)[C@@H](NC(=O)OC)C(C)C)[nH]4)ccc32)[nH]1)C(C)C` (some centres not stated), the EC90 is 360 pM in assay [2]; 140 pM in assay [6]; 12 pM in assay [7]; 47 pM in assay [8]; 720 pM in assay [3]; 3 pM in assay [4].
As for `CCc1ccc([C@@H]2Oc3cc(-c4cnc([C@@H]5CCCN5C(=O)[C@@H](NC(=O)OC)C(C)C)[nH]4)ccc3-c3cc4cc(-c5cnc([C@@H]6CCCN6C(=O)[C@@H](NC(=O)OC)C(C)C)[nH]5)ccc4n32)s1`, the Selectivity ratio in assay [1] turned out to be 50; in assay [5] it was 680. The EC90 is 3400 pM in assay [2], 250 pM in assay [3] and 5 pM in assay [4].
The like results for `COC(=O)N[C@H](C(=O)N1CCC[C@H]1c1ncc(-c2cc(F)c3c(c2)O[C@@H](c2ccc4c(c2)OCCC4)n2c-3cc3cc(-c4cnc([C@@H]5CCCN5C(=O)[C@@H](NC(=O)OC)C(C)C)[nH]4)ccc32)[nH]1)C(C)C` were, in that order, 100, 167, 500 pM, 300 pM and 3 pM.
For the molecule `COC(=O)N[C@H](C(=O)N1CCC[C@H]1c1ncc(-c2cc(F)c3c(c2)OC(c2ccsc2)n2c-3cc3cc(-c4cnc([C@@H]5CCCN5C(=O)[C@@H](NC(=O)OC)C(C)C)[nH]4)ccc32)[nH]1)C(C)C` (some centres not stated), the EC90 was 590 pM in assay [2]; 130 pM in assay [6]; 10 pM in assay [7]; 13 pM in assay [8]; 3700 pM in assay [3]; 2 pM in assay [4].
In the case of `COC(=O)N[C@H](C(=O)N1CCC[C@H]1c1ncc(-c2cc(F)c3c(c2)OC(c2nc4ccccc4o2)n2c-3cc3cc(-c4cnc([C@@H]5CCCN5C(=O)[C@@H](NC(=O)OC)C(C)C)[nH]4)ccc32)[nH]1)C(C)C` (some centres not stated), the EC90 in assay [2] came to 320 pM; in assay [6], 42 pM; in assay [7], 8 pM; in assay [8] it was 25 pM; in assay [3] it was 1000 pM; in assay [4] it was 4 pM.
For `CCCc1ccc(C2Oc3cc(-c4cnc([C@@H]5CCCN5C(=O)[C@@H](NC(=O)OC)C(C)C)[nH]4)cc(F)c3-c3cc4cc(-c5cnc([C@@H]6CCCN6C(=O)[C@@H](NC(=O)OC)C(C)C)[nH]5)ccc4n32)s1` (some centres not stated), the EC90 is 69 pM in assay [2]; 13 pM in assay [6]; 5 pM in assay [7]; 9 pM in assay [8]; 440 pM in assay [3]; 5 pM in assay [4].
With `CCc1ncc(C2Oc3cc(-c4cnc([C@@H]5CCCN5C(=O)[C@@H](NC(=O)OC)C(C)C)[nH]4)cc(F)c3-c3cc4cc(-c5cnc([C@@H]6C[C@H]7C[C@H]7N6C(=O)[C@@H](NC(=O)OC)C(C)C)[nH]5)ccc4n32)s1` (some centres not stated), the EC90 in assay [2] is 40 pM; in assay [6] it was 22 pM; in assay [7] it was 8 pM; in assay [8], 12 pM; in assay [3] it was 210 pM; in assay [4] it was 5 pM.
